Laboratory results from patent US6825236B2, “Colchicine derivatives” (California Pacific Medical Center, priority 2003, dated 2004).

System: HCT116
Assay: Cell colony formation assay
Assay type: cell-based
Conditions: 72 hours with drug, colonies counted after 7 days
Description: This example provides directions for growing cells and testing compounds of the invention for their effect on the growth of the cells. All cells were purchased from DCTDC Tumor Repository, NCI, NIH.
Cell Colony Formation Assay
Four hundred cells (HCT 116, PC-3) or five hundred cells (VM46) were plated in 60 mm Petri dishes containing 2.7 ml of medium (modified McCoy's 5a medium) containing 10% fetal bovine serum and 100 units/ml penicillin and […] streptomycin. The cells were incubated in a CO2 incubator at 37° C. for 5 hours for attachment to the bottom of Petri dishes. Drugs were made fresh in medium at ten times the final concentration, and then 0.3 ml of this stock solution was added to the 2.7 ml of medium in the dish. The cells were then incubated with drugs for 72 hours at 37° C. At the end of the incubation the drug-containing media were decanted, the dishes were rinsed with 4 ml of Hank's Balance Salt Solution (HBSS), 5 ml of fresh medium was added, and the dishes were returned to the incubator for colony formation. The cell colonies were counted using colony counter after incubation for 7 days for HCT116 cells and PC-3 cells and 8 days for VM46 cells, respectively.
Values of ID50 (the drug concentration producing 50% inhibition of colony formation) may be determined for each tested compound. The directions described in this example may be used in other cells, such as DU-145.

Compound	Survival (%) of HCT116 (100 nM) [%]	Survival (%) of HCT116 (10 nM) [%]	Survival (%) of HCT116 (1 nM) [%]
COc1cc2c(c(OC)c1OC)-c1ccc(SC)c(=O)cc1C(NC(=O)COc1ccc(OC(F)(F)F)cc1)CC2 (stereo not shown) [Compound 001213, N-Deacetyl-N-(4-trifluoromethoxyphenoxyacetyl)thiocolchicine]	62.56		
COc1cc2c(c(OC)c1OC)-c1ccc(SC)c(=O)cc1C(NC(=O)CCc1cccnc1)CC2 (stereo not shown) [Compound 000901, N-Deacetyl-N-(3-pyridinepropionyl)thiocolchicine]	0	61.60	
COc1cccc(N2CCN(CCC(=O)NC3CCc4cc(OC)c(OC)c(OC)c4-c4ccc(SC)c(=O)cc43)CC2)c1 (stereo not shown) [Compound 001225, N-Deacetyl-N-(4-[3-methoxyphenyl]-piperazinylpropionyl)thiocolchicine]	0	80.5	
COc1cc2c(c(OC)c1OC)-c1ccc(SC)c(=O)cc1C(NC(=O)COc1ccc(C#N)c(F)c1)CC2 (stereo not shown) [Compound 001106, N-Deacetyl-N-(3-fluoro-4-cyanophenoxyacetyl)thiocoichicine]	0	98.51	
COc1cc2c(c(OC)c1OC)-c1ccc(SC)c(=O)cc1C(NC(=O)CCN1C(=O)c3ccccc3C1=O)CC2 (stereo not shown) [Compound 000925, N-Deacetyl-N-(3-phthalimidopropionyl)thiocolchicine]	0	98.67	
COc1cc2c(c(OC)c1OC)-c1ccc(SC)c(=O)cc1C(NC(=O)COc1c(F)c(F)c(F)c(F)c1F)CC2 (stereo not shown) [Compound 000912, N-Deacetyl-N-(2,3,4,5,6-pentafluorophenoxyacetyl)thiocolchicine]	0.50	100	
COc1cc2c(c(OC)c1OC)-c1ccc(SC)c(=O)cc1C(NC(=O)c1ccc3c(c1)C(=O)c1ccccc1C3=O)CC2 (stereo not shown) [Compound 000908, N-Deacetyl-N-(anthraquinone-2-carbonyl)thiocolchicine]	0	100	
COc1cc2c(c(OC)c1OC)-c1ccc(SC)c(=O)cc1[C@@H](NC(=O)COc1ccc([N+](=O)[O-])c(C(F)(F)F)c1)CC2 [Compound 001107, N-Deacetyl-N-(3-trifluoromethyl-4-nitropbenoxyacetyl)thiocolchicine]	100		
COc1cc2c(c(OC)c1OC)-c1ccc(SC)c(=O)cc1[C@@H](NC(=O)c1cn(C)c3nc(C)ccc3c1=O)CC2 [Compound 000920, N-Deacetyl-N-(1,7-dimethylnaphthyridin-4-one-3-carboxy)thiocolchicine]	95.68		
COc1cc2c(c(OC)c1OC)-c1ccc(SC)c(=O)cc1C(NC(=O)CSc1cc(C)c(Cl)cc1Cl)CC2 (stereo not shown) [Compound 000831]	89.15		
COc1cc2c(c(OC)c1OC)-c1ccc(SC)c(=O)cc1[C@@H](NC(C)=O)CC2 [Thiocolchicine, thiocolchicine, reference compound]	0	0	100
COc1cc2c(c(OC)c1OC)-c1ccc(SC)c(=O)cc1C(NC(=O)c1ccc(N3C(=O)c4ccccc4C3=O)cc1)CC2 (stereo not shown) [Compound 001114, N-Deacetyl-N-(4-phthalimidobenzoyl)thiocolchicine]	95.05		
COc1cc2c(c(OC)c1OC)-c1ccc(SC)c(=O)cc1C(NC(=O)CSc1ccc(Cl)cc1)CC2 (stereo not shown) [Compound 000921, N-Deacetyl-N-[(4-chlorophenylthio)acetyl]thiocoichicine]	0	96.18	
COc1cc2c(c(OC)c1OC)-c1ccc(SC)c(=O)cc1C(NC(=O)Cn1cnnn1)CC2 (stereo not shown) [Compound 000918, N-Deacetyl-N-(1H-tetrazole-1-acetyl)thiocolchicine]	13.61		
COc1cc2c(c(OC)c1OC)-c1ccc(SC)c(=O)cc1C(NC(=O)CCC(=O)c1ccc(Br)cc1)CC2 (stereo not shown) [Compound 000926, N-Deacetyl-N-(3-[4-bromobenzoyl]propionyl)thiocolchicine]	0	100	
CCC(=C(CC)c1ccc(OCC(=O)NC2CCc3cc(OC)c(OC)c(OC)c3-c3ccc(SC)c(=O)cc32)cc1)c1ccc(OCC(=O)NC2CCc3cc(OC)c(OC)c(OC)c3-c3ccc(SC)c(=O)cc32)cc1 (stereo not shown) [Compound 000828, Dimer of N-Deacetylthiocolchicine]	93.81		
COc1cc2c(c(OC)c1OC)-c1ccc(SC)c(=O)cc1C(NC(=O)COc1c(I)cc(C#N)cc1I)CC2 (stereo not shown) [Compound 001229, N-Deacetyl-N-(2,6-diiodo-4-cyanophenoxyacetyl)thiocolchicine]	0	100	
COc1cc2c(c(OC)c1OC)-c1ccc(SC)c(=O)cc1C(NC(=O)N1c3ccccc3Sc3ccccc31)CC2 (stereo not shown) [Compound 000928, N-Deacetyl-N-(phenothiazin-10-ylcarbonyl)thiocolchicine]	100		
COc1cc2c(c(OC)c1OC)-c1ccc(SC)c(=O)cc1C(NC(=O)CCN1CCN(c3cccc(C(F)(F)F)c3)CC1)CC2 (stereo not shown) [Compound 001227, N-Deacetyl-N-(3-(4-[3-trifluoromethylphenyl]piperazinyl)propionyl)thiocolchicine]	0	100	
CCC(=C(CC)c1ccc(OCC(=O)NC2CCc3cc(OC)c(OC)c(OC)c3-c3ccc(SC)c(=O)cc32)cc1)c1ccc(OCC(=O)NC2CCc3cc(OC)c(OC)c(OC)c3-c3ccc(SC)c(=O)cc32)cc1 (stereo not shown) [Compound 000927, Dimer of N-Deacetylthiocolchicine]	0	100	
COc1cc2c(c(OC)c1OC)-c1ccc(SC)c(=O)cc1C(NC(=O)Cn1cc(C)c(=O)[nH]c1=O)CC2 (stereo not shown) [Compound 000905, N-Deacetyl-N-(thymine-1-acetyl)thiocolchicine]	96.66		
COc1cc2c(c(OC)c1OC)-c1ccc(SC)c(=O)cc1[C@@H](NC(=O)COc1ccc([N+](=O)[O-])cc1)CC2 [Compound 001127, N-Deacetyl-N-(4-nitrophenoxyacetyl)thiocolchicine]	0	75.37	
COc1cccc(OCC(=O)NC2CCc3cc(OC)c(OC)c(OC)c3-c3ccc(SC)c(=O)cc32)c1 (stereo not shown) [Compound 001024, N-Deacetyl-N-(3-methoxyphenoxyacetyl)thiocolchicine]	0	98.0	
COc1cc2c(c(OC)c1OC)-c1ccc(SC)c(=O)cc1C(NC(=O)CSc1ccncc1)CC2 (stereo not shown) [Compound 000922, N-Deacetyl-N-(4-pyridylthioacetyl)thiocolchicine]	0	0	100
COc1cc2c(c(OC)c1OC)-c1ccc(SC)c(=O)cc1[C@@H](NC(=O)COc1cc(C(F)(F)F)cc(C(F)(F)F)c1)CC2 [Compound 001207, N-Deacetyl-N-(3,5-di-trifluoromethylphenoxyacetyl)thiocolchicine]	3.10		
COc1cc2c(c(OC)c1OC)-c1ccc(SC)c(=O)cc1C(NC(=O)C1CCCN1C(=O)OC(C)(C)C)CC2 (stereo not shown) [Compound 000915, N-Deacetyl-N-(1-t-butoxycarbonyl-2-pyrrolidinecarbonyl)thiocolchicine]	70.12		
COc1cc2c(c(OC)c1OC)-c1ccc(SC)c(=O)cc1C(NC(=O)COc1ccnc3ccccc13)CC2 (stereo not shown) [Compound 001201, N-Deacetyl-N-(quinoline-4-oxyacetyl)thiocolchicine]	95.07		
COc1cc2c(c(OC)c1OC)-c1ccc(SC)c(=O)cc1C(NC(=O)C(C)ON=C1c3cc([N+](=O)[O-])cc([N+](=O)[O-])c3-c3c1cc([N+](=O)[O-])cc3[N+](=O)[O-])CC2 (stereo not drawn) [Compound 000913, N-Deacetyl-N-[(+)-2-(2,4,5,7-tetranitro-9-fluorenylideneaminooxy)propionyl]thiocolchicine]	1.00	90.91	
